How the values were obtained:
hNIS mRNA in KAK-1 cells = assay: qRT-PCR assay of hNIS mRNA levels after treatments in KAK-1 cells; format: cell-based, human; settings: for Relative hNIS mRNA level: relative to control = 1 (4 copies/10^9 18s RNA), azaC 0.5 μM, NaB 1 mM, CHX 10 μg/ml, 3-AB 7.5 mM, PJ34 30 μmole/liter; for Stimulation of hNIS mRNA transcription (in words): qRT-PCR
Method: The basal media and supplements were all from GIBCO/Invitrogen Corporation, Grand Island, N.Y. All thyroid cell lines were grown in phenol red-free RPMI 1640 (GIBCO) with 10% FBS, 100 nmol/L sodium selenite, and 0.1 nmol/L bovine TSH (Sigma) at 37° C. in 5% CO2. KAK-1 cells were also cultured in high-glucose, phenol red-free RPMI 1640 supplemented with 10% FBS, 100 nM sodium selenite, 5 pIU/ml human TSH, 0.1 mM non-essential amino acids, 1 mM sodium pyruvate at 37° C. in 5% CO2. Cell culture media was replenished every 2 days. All chemical reagents were obtained from Sigma Chemical Company (St. Louis, Mo.). In addition, PJ34 was obtained from CalBiochem/EMD Biosciences, Inc. (La Jolla, Calif.) and used at 30 μmole/liter. Cycloheximide (CHX), 3-aminobenzamide (3-AB), 5-azacytidine (azaC), and sodium butyrate (NaB) were from Sigma-Aldrich Chemical Company (St. Louis, Mo.) and used at 10 μg/ml, 7.5 mM, 0.5 μM, 1 mM respectively.
Total RNA was isolated using TRIzol reagent (Invitrogen Corp., Carlsbad, Calif.), genomic DNA contamination removed using DNA-free kit (Ambion Inc., Austin, Tex.), and cDNA synthesized from 2 μg total RNA using Advantage RT-for-PCR kit (BD Biosciences Clontech, Palo Alto, Calif.) with random hexamer primers. TaqMan Universal PCR Master Mix (Applied Biosystems, Foster City, Calif.) and Assay-on-Demand Gene Expression Products (Hs00166567_m1 for hNIS mRNA and Hs999999-1_s1 for 18sRNA, respectively; Applied Biosystems) were used for RNA quantitation. The hNIS fragment (1446-1865, +1 is translation initiation codon “A”) was PCR amplified using NIS-F (5′-ctgcgtggctctctcagtc-3′ SEQ ID NO:6) and NIS-R (5′-ccctccagctccttctgc-3′ SEQ ID NO:7), followed by ligation into pCR2.1 vector (Invitrogen). The same procedure was followed using 18s-F (5′-atggtgaccacgggtgacg-3′ SEQ ID NO:8) and 18s-R (5′-[…]-3′ SEQ ID NO:9) for 18s qPCR standard. DNA preparations of these two plasmids were quantitated, diluted and used as quantitation standards in qPCR measurements.
The qRT-PCR assay was used to measure hNIS mRNA levels after different treatments in KAK-1 cells.

[1] = system: factor(s) in KAK-1 nuclear extract binding to Probe A (NIS-repressor); assay: EMSA competition of cold double-stranded oligonucleotides against radiolabeled Probe A with KAK-1 nuclear extract; set-up: species or system human; settings: excess (60×) cold competitor
Method: Nuclear extracts were prepared using the NucBuster Protein Extraction kit from Novagen/EMD Biosciences, Inc. (La Jolla, Calif.) following its instructions. The radioactive EMSA probes were end-labeled using T4 polynucleotide kinase in the presence of γ-P^32-ATP (GE Healthcare Bio-Sciences Corp., Piscataway, N.J.), followed by removal of the free radioactive ATP with the QIAquick Nucleotide Removal Kit from Qiagen (Valencia, Calif.). EMSA reaction was performed using the EMSA Accessory Kit (Novagen) following its instructions. Briefly, 1 μL 10 mM DTT, 5 μL 4×EMSA buffer, 1 μL Salmon sperm DNA and 1 μL poly dI:dC were mixed with 3 μL nuclear extracts, 1 μL radioactive EMSA probe and water to make up to 18 μL. In some reactions, antibodies or cold competitive probes were added. The mixtures were incubated on ice for 30 min, Then 2 μL loading dye were added to each reaction tubes, and the samples were loaded onto 7.5% PAGE/0.5×TBE, and run overnight. The gel was dried, exposed to X-ray films that were developed 2-3 days later. The competitive EMSA probes were prepared by annealing the sense and anti-sense single strand synthetic oligos respectively, which are listed in Table 2.

[2] = system: human NIS promoter region (Luc-1/pGL3-basic) in KAK-1 cells; assay: Transient transfection luciferase reporter assay, Luc-1/pGL3-basic (hNIS promoter -1667 to -348 bp) in KAK-1 cells, protein synthesis inhibitors; format: cell-based; settings: 2 days, Anisomycin at 0.4, 1 μg/ml, Emetine at 1, 2 μg/ml, Puromycin up to highest concentration used (1 μg/ml)
Method: The pGL3-basic plasmid, together with phRG-B plasmid (as transfection efficiency control) and pUC-18 (as carrier) were transiently transfected into KAK-1 cells cultured under basal conditions supplemented with 0.01% DMSO (as solvent control), Anisomycin (0.1, 0.4, 1 μg/ml), Emetine (0.5, 1, 2 μg/ml) and Puromycin (0.1, 0.4, 1 μg/ml) respectively for 2 days. The cells were then lysed and firefly luciferase activity and Renilla luciferase activity were quantitated using a luminometer (FIG. 3).
Luc-1/pGL3-basic reporter construct (Luc-1) was prepared containing the promoter region of the human sodium/iodide symporter gene (see Venkataraman et al. 1998 Thyroid 8:63-69 and U.S. Pat. No. 6,015,376; Genebank Accession Number: AF059566) from −1667 to −348 bp (FIG. 2) inserted into pGL3-basic luciferase vector at KpnI and HindIII site upstream of the luciferase coding sequence. The Luc-1/pGL3-basic construct, together with phRG-B plasmid (as transfection efficiency control) and pUC-18 (as carrier) were transiently transfected into KAK-1 cells cultured under basal conditions supplemented with 0.01% DMSO (as solvent control), Anisomycin (0.1, 0.4, 1 μg/ml), Emetine (0.5, 1, 2 μg/ml) and Puromycin (0.1, 0.4, 1 μg/ml) respectively for 2 days. The cells were then lysed and firefly luciferase activity and Renilla luciferase activity were quantitated using luminometer (FIG. 4).

[3] = system: factors in KAK-1 nuclear extract binding to NRBS (Probe A); assay: EMSA with radiolabeled Probe A and nuclear extract from treated KAK-1 cells; format: cell-based, human; settings: nuclear extract from KAK-1 cells treated with azaC 0.5 μM, sodium butyrate 1 mM, CHX 10 μg/ml or combinations
Method: Electrophoretic mobility shift assay was performed using radio-labeled NRBS (−684 to −565) oligonucleotides as a probe and nuclear extracts from KAK-1 cells cultured under basal conditions (not expressing hNIS mRNA), as well as with azaC/NaB and azaC/CHX treatments (shown in FIG. 8 on far left).

[4] = system: hNIS promoter in KAK-1 cells; assay: Luciferase reporter assay with pGL3-basic, F4-pGL3-basic and F4Δ-pGL3-basic constructs in KAK-1 cells, PJ34 treatment; format: cell-based, human; settings: PJ34 at 30 μM for 2 days, pGL3-basic, F4-pGL3-basic, F4Δ-pGL3-basic, p<0.05, t-test
Method: For the transient transfection assays to monitor the effects of PJ34, PJ34 was administered at 30 μM one hour before DNA transfection mixtures were added to the KAK-1 cultures. Twenty-four hours later, transfection mixtures were replaced with fresh media containing PJ34. Luciferase and Rennilar activities were determined 24 hr later. Luciferase activity was normalized to Rennilar activity to account for the variations in transfection efficiency. Triplicate transfections were performed and data were presented as mean±SD.
PJ34 is a potent inhibitor for PARP-1. Its effect on hNIS transcription was determined using luciferase reporter assay with pGL3-basic, F4-pGL3-basic (containing hNIS promoter from −1252 to −348 bp) and F4Δ-pGL3-basic constructs (the same as F4-pGL3-basic but with deletion of sequence from −667 to −588 bp, encompassing R—NRBS).

Molecule: C[C@@H]1C[C@@H]([C@H](O)CC2CC(=O)NC(=O)C2)C(=O)[C@@H](C)C1 [CHX, Cycloheximide]
- Relative hNIS mRNA level (hNIS mRNA in KAK-1 cells): 4

Molecule: Comp-1.3: double-stranded competitive EMSA probe, −643 to −620 of hNIS promoter, Seq ID No:81/82 (chain 1 AGCCTCAATTTCCCCACCTGTCAA; chain 2 TTGACAGGTGGGGAAATTGAGGCT; chemistry not given here)
- Competition against radiolabeled Probe A in EMSA (gel-shift signal) [1]: effectively competed against the radiolabeled Probe A

Molecule: CC[C@H]1CN2CCc3cc(OC)c(OC)cc3[C@@H]2C[C@@H]1C[C@H]1NCCc2cc(OC)c(OC)cc21 [Emetine]
- Normalized luciferase activity driven by human NIS promoter region (Luc-1/pGL3-basic), compared with pGL3-basic vector [2]: dramatically stimulated the normalized luciferase activity

Molecule: COc1ccc(C[C@H]2NC[C@H](O)[C@H]2OC(C)=O)cc1 [Anisomycin]
- Normalized luciferase activity driven by human NIS promoter region (Luc-1/pGL3-basic), compared with pGL3-basic vector [2]: dramatically stimulated the normalized luciferase activity

Molecule: Nc1ncn([C@@H]2O[C@H](CO)[C@@H](O)[C@H]2O)c(=O)n1 [azaC, 5-azacytidine]
- Relative hNIS mRNA level (hNIS mRNA in KAK-1 cells): 5
- Effect of cell treatment on EMSA gel shift pattern (Probe A) [3]: gel shift pattern remained the same

Molecule: Comp-1.4: double-stranded competitive EMSA probe, −638 to −615 of hNIS promoter, Seq ID No:83/84 (chain 1 CAATTTCCCCACCTGTCAACAGCA; chain 2 TGCTGTTGACAGGTGGGGGAAATTG; chemistry not given here)
- Competition against radiolabeled Probe A in EMSA (gel-shift signal) [1]: fail to compete against the radiolabeled Probe A

Molecule: Comp-1.2: double-stranded competitive EMSA probe, −648 to −625 of hNIS promoter, Seq ID No:79/80 (chain 1 TTTTGAGCCTCAATTTCCCCACCT; chain 2 AGGTGGGGAAATTGAGGCTCAAAA; chemistry not given here)
- Competition against radiolabeled Probe A in EMSA (gel-shift signal) [1]: effectively competed against the radiolabeled Probe A

Molecule: COc1ccc(C[C@H](N)C(=O)N[C@H]2[C@@H](O)[C@H](n3cnc4c(N(C)C)ncnc43)O[C@@H]2CO)cc1 [Puromycin]
- Normalized luciferase activity driven by human NIS promoter region (Luc-1/pGL3-basic), compared with pGL3-basic vector [2]: did not stimulate the luciferase activity much

Molecule: NC(=O)c1cccc(N)c1 [3-AB, 3-aminobenzamide]
- Stimulation of hNIS mRNA transcription (in words) (hNIS mRNA in KAK-1 cells): not effective in stimulating hNIS mRNA transcription
- Relative hNIS mRNA level (hNIS mRNA in KAK-1 cells): 1

Molecule: CN(C)CC(=O)Nc1ccc2[nH]c(=O)c3ccccc3c2c1 [PJ34]
- Stimulation of hNIS mRNA transcription (in words) (hNIS mRNA in KAK-1 cells): stimulate hNIS mRNA more than CHX alone
- Relative hNIS mRNA level (hNIS mRNA in KAK-1 cells): 26
- Normalized luciferase activity with versus without PJ34 treatment [4]: stimulated luciferase activity from all the constructs

Molecule: Comp-1.1: double-stranded competitive EMSA probe, −653 to −630 of hNIS promoter, Seq ID No:77/78 (chain 1 GCCCTTTTTGAGCCTCAATTTCCC; chain 2 GGGAAATTGAGGCTCAAAAAGGGC; chemistry not given here)
- Competition against radiolabeled Probe A in EMSA (gel-shift signal) [1]: fail to compete against the radiolabeled Probe A

B1: Comp-2: double-stranded competitive EMSA probe, −633 to −595 of hNIS promoter, Seq ID No:85/86 (nucleic acid)
chain 1: TCCCCACCTGTCAACAGCAGACAGTGACAGCTGTGATCA
chain 2: TGATCACAGCTGTCACTGTCTGCTGTTGACAGGTGGGGA
modifications: chemistry not given here
- Competition against radiolabeled Probe A in EMSA (gel-shift signal) [1]: fail to compete against the radiolabeled Probe A

B2: Comp-0.9: double-stranded competitive EMSA probe, −660 to −627 of hNIS promoter, Seq ID No:73/74 (nucleic acid)
chain 1: GTGACATGCCCTTTTTGAGCCTCAATTTCCCCAC
chain 2: GTGGGGAAATTGAGGCTCAAAAAGGGCATGTCAC
modifications: chemistry not given here
- Competition against radiolabeled Probe A in EMSA (gel-shift signal) [1]: fail to compete against the radiolabeled Probe A

B3: Comp-1: double-stranded competitive EMSA probe, −653 to −615 of hNIS promoter, Seq ID No:75/76 (nucleic acid)
chain 1: GCCCTTTTTGAGCCTCAATTTCCCCACCTGTCAACAGCA
chain 2: TGCTGTTGACAGGTGGGGAAATTGAGGCTCAAAAAGGGC
modifications: chemistry not given here
- Competition against radiolabeled Probe A in EMSA (gel-shift signal) [1]: completely erased the characteristic gel-shift signal

Reference: US8252912B2, “Transcriptional repression of sodium-iodide symporter in thyroid carcinoma” (University of Kentucky Research Foundation, priority 2007, dated 2012)
